Laboratory results published in patent US20220226265A1, “METHODS OF CONTROLLING MYOCARDIAL BLOOD FLOW” (UNIVERSITY OF LOUISVILLE RESEARCH FOUNDATION, INC., priority 2021, published 2022).

Test system: wild type and Kvβ-null mice
Assay: Echocardiographic cardiac function during intravenous norepinephrine infusion
Format: in vivo, mouse
Conditions: for ejection fraction: after 1 min of 5 μg/kg·min−1 norepinephrine infusion
Excerpt: In vivo measurements of cardiac function and myocardial blood flow: Mice were anesthetized with 3% isoflurane and supplemental O2, administered (1 L·min^−1) in a small induction chamber. After induction, the mice were placed on a controlled heating table in a supine position. Anesthesia was maintained throughout the procedure by delivery of 1-2% isoflurane and supplemental O2 (0.5 L·min^−1). The extremities were secured to the surgical table by tape and a lubricated probe was inserted rectally to monitor body temperature. The chest, neck, and hind limb hair were then removed using a depilatory agent, the skin was rinsed with warm water, and the neck area was disinfected with 70% ethanol/betadine and an incision (10-15 mm) was made at the right side of the neck. For infusion of contrast agent and drugs, the jugular vein was isolated using blunt forceps and catheterized with sterilized PE-50 polyethylene tubing (pre-filled with heparinized saline; 50 U·ml^−1). The jugular vein catheter was then secured in place with two sutures. For continuous measurement of arterial blood pressure, a small incision was made on the hind limb and the femoral artery was isolated and cannulated with a 1.2 F pressure catheter (SciSense, Transonic Systems, Inc., Ithaca, N.Y., USA) connected to a PowerLab data acquisition system (ADInstruments, Colorado Springs, Colo., USA) through a SP200 pressure interface unit designed to measure arterial blood pressure and heart rate. After cannulation, the pressure catheter was advanced 10 mm into the abdominal aorta.
Ultrasound gel was centrifuged in a 60 mL syringe (1500×g, 10 min) to remove air bubbles, warmed to 37° C., and applied to the chest. Cardiac function was measured by M-mode transthoracic echocardiographic imaging of the parasternal short axis view, mid-papillary level using a Vevo 2100 high resolution echocardiography imaging system (FujiFilm VisualSonics, Toronto, ON, Canada). Contrast echocardiography was performed by using Siemens ultrasound imaging system (Sequoia Acuson C512; Siemens Medical Systems USA Inc., Mountain View, Calif.) with a high-frequency linear-array probe (15L8) held in place by a 3D railing system. For myocardial contrast echocardiography (MCE), we administered lipid-shelled microbubbles, which were freshly prepared by sonication of a decafluorobutane gas-saturated aqueous suspension of distearoylphosphatidylcholine (2 mg/mL) and polyoxyethylene-40-stearate (1 mg/mL). The contrast agent was intravenously infused via the jugular vein catheter at a rate of ˜5×10^5 microbubbles·min-1 (20 μl·min^−1) and MCE was performed by administering a multi-pulse contrast-specific pulse sequence to detect non-linear microbubble contrast signal at low mechanical index (MI=0.18-0.25). Data were acquired during and after a 1.9 MI pulse sequence to destruct microbubbles within the acoustic field, followed by imaging of replenished contrast signal.
Measurements of cardiac function, myocardial perfusion, and arterial blood pressure were performed at baseline, after administration of hexamethonium (5 mg·kg^−1, i.v.), and following successive doses of norepinephrine (0.5, 1.0, 2.5, and 5.0 μg·kg^−1·min^−1; 3 min duration each dose, followed by 3-5 min washout). […] All data analyses and calculations of cardiac workload (double product of mean arterial pressure and heart rate), cardiac function, myocardial blood flow, and mean arterial pressure were performed offline. For pressure measurements, we used Lab Chart 8 software (ADInstruments, Colorado Springs, Colo., USA). Left ventricular volume at end diastole (LVEDV) and end systole (LVESV), as well left ventricular internal diameter at end diastole (LVID,d) and end systole (LVID,s) were measured at steady state after drug infusions. […]

[1] = NE 0.5 μg/kg·min−1 i.v., Kvβ1.1−/− mice
[2] = NE 0.5 μg/kg·min−1 i.v., Kvβ2−/− mice
[3] = NE 0.5 μg/kg·min−1 i.v., SM22α-rtTA mice
[4] = NE 0.5 μg/kg·min−1 i.v., SM22α-rtTA:TRE-Kvβ1 mice
[5] = NE 0.5 μg/kg·min−1 i.v., Wild type (129SvEv) mice
[6] = NE 0.5 μg/kg·min−1 i.v., Wild type (C57B16N) mice
[7] = NE 1 μg/kg·min−1 i.v., Kvβ1.1−/− mice
[8] = NE 1 μg/kg·min−1 i.v., Kvβ2−/− mice
[9] = NE 1 μg/kg·min−1 i.v., SM22α-rtTA mice
[10] = NE 1 μg/kg·min−1 i.v., SM22α-rtTA:TRE-Kvβ1 mice
[11] = NE 1 μg/kg·min−1 i.v., Wild type (129SvEv) mice
[12] = NE 1 μg/kg·min−1 i.v., Wild type (C57B16N) mice
[13] = NE 2.5 μg/kg·min−1 i.v., Kvβ1.1−/− mice
[14] = NE 2.5 μg/kg·min−1 i.v., Kvβ2−/− mice
[15] = NE 2.5 μg/kg·min−1 i.v., SM22α-rtTA mice
[16] = NE 2.5 μg/kg·min−1 i.v., SM22α-rtTA:TRE-Kvβ1 mice
[17] = NE 2.5 μg/kg·min−1 i.v., Wild type (129SvEv) mice
[18] = NE 2.5 μg/kg·min−1 i.v., Wild type (C57B16N) mice
[19] = NE 5.0 μg/kg·min−1 i.v., Kvβ1.1−/− mice
[20] = NE 5.0 μg/kg·min−1 i.v., Kvβ2−/− mice
[21] = NE 5.0 μg/kg·min−1 i.v., SM22α-rtTA mice
[22] = NE 5.0 μg/kg·min−1 i.v., SM22α-rtTA:TRE-Kvβ1 mice
[23] = NE 5.0 μg/kg·min−1 i.v., Wild type (129SvEv) mice
[24] = NE 5.0 μg/kg·min−1 i.v., Wild type (C57B16N) mice

In the case of `NC[C@H](O)c1ccc(O)c(O)c1` [norepinephrine], the “EDV (left ventricular end diastolic volume)” value (from here on “EDV”) [1] is reported as 53.5 ± 4.9 µL, the “EF (ejection fraction)” value [1] is reported as 61.4 ± 4.2% and the “ESV (left ventricular end systolic volume)” value (shortened to “ESV”) [1] is reported as 21.3 ± 3.9 µL. The “FS (fractional shortening)” value [1] was 32.5 ± 2.8%, the “SV (stroke volume)” value [1] was 32.2 ± 1.8 µL and the “EDV” value [2] was 48.3 ± 2.7 µL. The “EF (ejection fraction)” value [2] was 71.9 ± 3.3%, the “ESV” value [2] was 13.6 ± 1.6 µL and the “FS (fractional shortening)” value [2] was 40.7 ± 2.8%. The “SV (stroke volume)” value [2] was 34.7 ± 2.4 µL, the “EDV” value [3] was 43.6 ± 2.9 µL and the “EF (ejection fraction)” value [3] was 82.3 ± 3.3%. For the same molecule, the “ESV” value [3] was 8.1 ± 2.0 µL, the “FS (fractional shortening)” value [3] was 50.9 ± 3.6% and the “SV (stroke volume)” value [3] was 35.4 ± 1.6 µL. The “EDV” value [4] was 45.9 ± 3.8 µL, the “EF (ejection fraction)” value [4] was 62.7 ± 6.0% and the “ESV” value [4] was 17.7 ± 3.6 µL. For the same molecule, the “FS (fractional shortening)” value [4] was 33.9 ± 4.1%, the “SV (stroke volume)” value [4] was 28.2 ± 2.7 µL and the “EDV” value [5] was 50.5 ± 7.8 µL. The “EF (ejection fraction)” value [5] was 63.5 ± 2.5%, the “ESV” value [5] was 19.4 ± 3.7 µL and the “FS (fractional shortening)” value [5] was 34.2 ± 1.9%. The “SV (stroke volume)” value [5] was 31.2 ± 4.2 µL, the “EDV” value [6] was 57.8 ± 2.3 µL and the “EF (ejection fraction)” value [6] was 71.64 ± 2.2%. The “ESV” value [6] was 16.37 ± 1.4 µL, the “FS (fractional shortening)” value [6] was 40.48 ± 2.0% and the “SV (stroke volume)” value [6] was 41.46 ± 2.3 µL. The “EDV” value [7] was 47.6 ± 8.1 µL, the “EF (ejection fraction)” value [7] was 70.9 ± 3.1% and the “ESV” value [7] was 14.1 ± 3.4 µL. The “FS (fractional shortening)” value [7] was 40.1 ± 2.4%, the “SV (stroke volume)” value [7] was 33.5 ± 5.2 µL and the “EDV” value [8] was 48.7 ± 4.6 µL. For the same molecule, the “EF (ejection fraction)” value [8] was 73.1 ± 1.8%, the “ESV” value [8] was 13.3 ± 1.8 µL and the “FS (fractional shortening)” value [8] was 41.4 ± 1.6%. For the same molecule, the “SV (stroke volume)” value [8] was 42.7 ± 8.2 µL, the “EDV” value [9] was 49.4 ± 2.9 µL and the “EF (ejection fraction)” value [9] was 80.6 ± 4.2%. For the same molecule, the “ESV” value [9] was 10.0 ± 2.6 µL, the “FS (fractional shortening)” value [9] was 49.6 ± 4.3% and the “SV (stroke volume)” value [9] was 39.4 ± 1.8 µL. For the same molecule, the “EDV” value [10] was 46.9 ± 4.9 µL, the “EF (ejection fraction)” value [10] was 74.2 ± 3.9% and the “ESV” value [10] was 12.7 ± 3.2 µL. For the same molecule, the “FS (fractional shortening)” value [10] was 42.7 ± 3.3%, the “SV (stroke volume)” value [10] was 34.2 ± 2.0 µL and the “EDV” value [11] was 46.7 ± 7.4 µL. The “EF (ejection fraction)” value [11] was 70.7 ± 5.3%, the “ESV” value [11] was 14.7 ± 4.3 µL and the “FS (fractional shortening)” value [11] was 40.1 ± 4.6%. The “SV (stroke volume)” value [11] was 32.0 ± 3.7 µL, the “EDV” value [12] was 61.6 ± 3.2 µL and the “EF (ejection fraction)” value [12] was 72.40 ± 1.2%. The “ESV” value [12] was 17.12 ± 1.3 µL, the “FS (fractional shortening)” value [12] was 40.97 ± 1.0% and the “SV (stroke volume)” value [12] was 44.52 ± 2.3 µL. The “EDV” value [13] was 41.5 ± 8.8 µL, the “EF (ejection fraction)” value [13] was 78.2 ± 2.0% and the “ESV” value [13] was 9.4 ± 2.7 µL. For the same molecule, the “FS (fractional shortening)” value [13] was 46.0 ± 1.8%, the “SV (stroke volume)” value [13] was 32.1 ± 6.1 µL and the “EDV” value [14] was 52.8 ± 3.5 µL. For the same molecule, the “EF (ejection fraction)” value [14] was 70.1 ± 2.6%, the “ESV” value [14] was 15.7 ± 1.6 µL and the “FS (fractional shortening)” value [14] was 39.0 ± 2.2%. The “SV (stroke volume)” value [14] was 37.1 ± 2.8 µL, the “EDV” value [15] was 51.5 ± 2.8 µL and the “EF (ejection fraction)” value [15] was 77.4 ± 5.1%. For the same molecule, the “ESV” value [15] was 12.2 ± 3.1 µL, the “FS (fractional shortening)” value [15] was 46.8 ± 4.8% and the “SV (stroke volume)” value [15] was 39.3 ± 2.1 µL. For the same molecule, the “EDV” value [16] was 47.5 ± 5.5 µL, the “EF (ejection fraction)” value [16] was 74.2 ± 5.7% and the “ESV” value [16] was 13.2 ± 4.3 µL. For the same molecule, the “FS (fractional shortening)” value [16] was 43.1 ± 4.8%, the “SV (stroke volume)” value [16] was 34.3 ± 1.4 µL and the “EDV” value [17] was 48.8 ± 6.0 µL. For the same molecule, the “EF (ejection fraction)” value [17] was 67.9 ± 2.7%, the “ESV” value [17] was 16.0 ± 2.7 µL and the “FS (fractional shortening)” value [17] was 37.4 ± 2.1%. For the same molecule, the “SV (stroke volume)” value [17] was 32.8 ± 3.6 µL, the “EDV” value [18] was 62.8 ± 3.7 µL and the “EF (ejection fraction)” value [18] was 72.88 ± 1.8%. The “ESV” value [18] was 17.22 ± 1.7 µL, the “FS (fractional shortening)” value [18] was 41.47 ± 1.5% and the “SV (stroke volume)” value [18] was 45.63 ± 2.6 µL. For the same molecule, the “EDV” value [19] was 45.7 ± 11.9 µL, the “EF (ejection fraction)” value [19] was 79.1 ± 2.7% and the “ESV” value [19] was 10.4 ± 3.4 µL. The “FS (fractional shortening)” value [19] was 47.1 ± 2.4%, the “SV (stroke volume)” value [19] was 35.3 ± 8.5 µL and the “EDV” value [20] was 54.6 ± 4.5 µL. For the same molecule, the “EF (ejection fraction)” value [20] was 67.5 ± 3.8%, the “ESV” value [20] was 18.5 ± 3.1 µL and the “FS (fractional shortening)” value [20] was 37.3 ± 3.0%. The “SV (stroke volume)” value [20] was 36.1 ± 2.3 µL, the “EDV” value [21] was 56.9 ± 3.9 µL and the “EF (ejection fraction)” value [21] was 77.7 ± 5.8%. For the same molecule, the “ESV” value [21] was 13.4 ± 3.9 µL, the “FS (fractional shortening)” value [21] was 48.1 ± 6.0% and the “SV (stroke volume)” value [21] was 43.5 ± 3.1 µL. For the same molecule, the “EDV” value [22] was 49.3 ± 5.7 µL, the “EF (ejection fraction)” value [22] was 69.9 ± 5.0% and the “ESV” value [22] was 15.6 ± 3.9 µL. For the same molecule, the “FS (fractional shortening)” value [22] was 39.3 ± 4.2%, the “SV (stroke volume)” value [22] was 33.7 ± 2.6 µL and the “EDV” value [23] was 56.4 ± 5.0 µL. For the same molecule, the “EF (ejection fraction)” value [23] was 69.1 ± 2.4%, the “ESV” value [23] was 17.3 ± 1.6 µL and the “FS (fractional shortening)” value [23] was 38.3 ± 1.9%. The “SV (stroke volume)” value [23] was 39.1 ± 4.1 µL, the “EDV” value [24] was 66.1 ± 4.4 µL and the “EF (ejection fraction)” value [24] was 73.65 ± 2.4%. The “ESV” value [24] was 17.85 ± 2.3 µL, the “FS (fractional shortening)” value [24] was 42.39 ± 2.1% and the “SV (stroke volume)” value [24] was 48.26 ± 2.7 µL. The ejection fraction (Kvβ2−/− mice) was 71±1.7% and the ejection fraction (WT animals) was 84±2.2%.
